Experimental data from paper PMC10536304 (2023).

Columns and labels:
[1] = system: AU-RNA (poly A-poly U; rArU-RNA) (RNA, polymer) A/U; experiment: CD titration, Scatchard; conditions: Na+ (sodium cacodylate, I = 0.05 M); sodium cacodylate pH 7.0, 25 °C; Scatchard n fixed 0.2 per phosphate; per base
[2] = system: AU-RNA (poly A-poly U; rArU-RNA) (RNA, polymer) A/U; experiment: UV thermal melting, 260 nm; conditions: Na+ (sodium cacodylate, I = 0.05 M); sodium cacodylate pH 7.0; r[compound]/[polynucleotide] = 0.1, polynucleotide 25 µM (phosphate); per base

c1cc2ccc3ccc(CNCCCNCCN(CCNCCCNCc4ccc5ccc6cccc7ccc4c5c67)CCNCCCNCc4ccc5ccc6cccc7ccc4c5c67)c4ccc(c1)c2c34
logKs [1]: 6.5 log(M^-1)
∆Tm [2]: 3.7 ± 0.5 °C
